Source: patent US11168134B2, “Methods of treating androgen deprivation therapy resistant prostate cancer” (Fondazione per l'Istituto Oncologico di Ricerca (IOR), priority 2018, dated 2021)

How the values were obtained:
[1] = test system: prostate tumors of CTX Pten^pc−/− mice; test: CXCR2 antagonist treatment of surgically castrated Pten^pc−/− mice; format: in vivo, mouse
Description: All mice were maintained under specific pathogen-free conditions in the IRB facility and experiments were performed according to state guidelines and approved by the local ethics committee. Male C57BL/6 or FVB mice 6-8 weeks of age were purchased from Jackson Laboratories (Envigo), and acclimated for at least a week before use. C57BL/6 IL-23p19KO (IL23ko) mice were kindly provided by Prof. Federica Sallusto (IRB, Bellinzona). Pten^pc−/− mice were generated and genotyped as previously described. […] Mice were monitored postoperatively for recovery from anesthesia and checked daily for 2 days postoperatively. […] Tumor growth was monitored daily by measuring the tumor size with caliper. […]
Tumors were disaggregated and digested in collagenase D and DNAse for 30 minutes at 37° C. to obtain single-cell suspension. […] Data were analyzed using FlowJo software (TreeStar, Ashland, Oreg.).
(§1) RNA isolation (TRIzol, Qiagen) and retro-transcription with SuperScriptIII (Invitrogen, 11752-250) were performed according to the manufacturer's instructions. Quantitative PCR (qPCR) reactions (Bio-Rad) were performed using KAPA SYBR FAST qPCR green (KK4605; Applied Biosystems) and the specific primers reported below. […]

TRAMP-C1 cells [2] = test: CXCR2 antagonist treatment of castrated TRAMP-C1 allograft mice; format: in vivo, mouse
Description: (§2) All mice were maintained under specific pathogen-free conditions in the IRB facility and experiments were performed according to state guidelines and approved by the local ethics committee. Male C57BL/6 or FVB mice 6-8 weeks of age were purchased from Jackson Laboratories (Envigo), and acclimated for at least a week before use. C57BL/6 IL-23p19KO (IL23ko) mice were kindly provided by Prof. Federica Sallusto (IRB, Bellinzona). Pten^pc−/− mice were generated and genotyped as previously described. Female Pten^loxP/loxP mice were crossed with male PB-Cre4 transgenic mice and genotyped for Cre using following primers: primer 1 (5′-[…]-3′) and primer 2 (5′-[…]-3′) for PTEN^loxP/loxP; primer 1 (5′ […] 3′) and primer 2 (5′CAGCCACCAGCTTGCATGA 3′) for Probasin-CRE. Surgical castration was performed under anesthesia with isoflurane. Mice were monitored postoperatively for recovery from anesthesia and checked daily for 2 days postoperatively. Surgical skin clips were removed on postoperative day 5. Mice undergoing treatment were administered control vehicle or therapeutic doses of the appropriate agents. Any mouse suffering distress or greater than 15% weight loss during treatment was euthanized by CO2 asphyxiation. At the completion of study, mice were euthanized by CO2 asphyxiation and tissue was collected for histology, mRNA analysis, protein analysis, and single cell suspensions for flow cytometry. For allograft experiments, 2.5×10^6 TRAMP-C1 cells, 2.5×10^6 TRAMP-C1 IL23RKO, or 2×10^6 MyC-CaP cells were injected subcutaneously into the flank of male respectively C57BL/6 or FVB mice. When tumors were approximately 100 mm^3, mice were randomized to the treatment groups. Tumor growth was monitored daily by measuring the tumor size with caliper. The tumor volume was estimated by calculating R1*R2*R3*4/3π, where R1 and R2 are the longitudinal and lateral radii, and R3 is the thickness of tumor protruding from the surface of normal skin. Animals were sacrificed when the tumor reached approximately 600 mm^3.
(§3) αCXCR2 (AZD5069; AstraZeneca) was administered with daily intraperitoneal injections at a final concentration of 100 mg/kg on a Monday through Friday schedule. Control animals received vehicle. Enzalutamide (APExBio) was administered daily by oral gavage with a dose of 30 mg/kg/day on a Monday through Friday schedule. Rat anti-IL23 antibody (100 ng per mouse; G23-8; IgG1, kappa; eBioscience) or rat IgG1 isotype control (eBioscience) were administered weekly via intraperitoneal injection.
(§4) Tumors were disaggregated and digested in collagenase D and DNAse for 30 minutes at 37° C. to obtain single-cell suspension. For intracellular cytokine detection cells where stimulated for 5 hours with PMA/ionomycin. After neutralization of unspecific binding with αCD16/CD32 (clone 93), single-cell suspensions were stained with specific mAb (primary antibodies directly conjugated) to assess the phenotype. […] Data were analyzed using FlowJo software (TreeStar, Ashland, Oreg.).
as §1

MyC-CaP cells = test: CXCR2 antagonist treatment of castrated MyC-CaP allograft mice; format: in vivo, mouse
Description: as §2, §3, §4, §1

TRAMP-C1 cells [3] = test: In vitro culture of prostate cancer cells under full androgen deprivation (F.A.D.); format: cell-based, mouse
Description: Prostate cancer cell lines were starved in Charcoal Stripped FBS (CS-FBS) medium for 72 h and then cultured with RPMI 1640 containing 10% heat-inactivated FBS (normal medium) or kept in full androgen deprivation medium (RPMI 1640 containing 10% heat-inactivated Charcoal Stripped-FBS plus Enzalutamide 10 μM; F.A.D.). Then, the cells were stimulated with or without condition media obtained from activated BM-derived MDSCs, or recombinant IL23 (100 ng/ml; R&D System), with or without αRORγ (5 μM; SR2211; Calbiochem®). Then, the cells were analyzed for Crystal Violet assay or stained with Annexin V/7AAD or collected for RNA extraction.
RNA isolation (TRIzol, Qiagen) and retro-transcription with SuperScriptIII (Invitrogen, 11752-250) were performed according to the manufacturer's instructions. Quantitative PCR (qPCR) reactions (Bio-Rad) were performed using KAPA SYBR FAST qPCR green (KK4605; Applied Biosystems) and the specific primers reported below. Primer sequences were obtained from PrimerBank (http://pga.mgh.harvard.edu/primerbank/index.html) or BIORAD. Each expression value was normalized by HPRT or GADPH level as reference.

[4] = test system: castration resistant prostate tumors of Pten^pc−/− mice; test: Preclinical trial in castration-resistant Pten^pc−/− mice (αIL23, ENZA, ENZA+αIL23); format: in vivo, mouse; conditions: ENZA 30 mg/kg/day oral alone
Description: All mice were maintained under specific pathogen-free conditions in the IRB facility and experiments were performed according to state guidelines and approved by the local ethics committee. Male C57BL/6 or FVB mice 6-8 weeks of age were purchased from Jackson Laboratories (Envigo), and acclimated for at least a week before use. C57BL/6 IL-23p19KO (IL23ko) mice were kindly provided by Prof. Federica Sallusto (IRB, Bellinzona). Pten^pc−/− mice were generated and genotyped as previously described. Female Pten^loxP/loxP mice were crossed with male PB-Cre4 transgenic mice and genotyped for Cre using following primers: primer 1 (5′-[…]-3′) and primer 2 (5′-[…]-3′) for PTEN^loxP/loxP; primer 1 (5′ […] 3′) and primer 2 (5′CAGCCACCAGCTTGCATGA 3′) for Probasin-CRE. Surgical castration was performed under anesthesia with isoflurane. Mice were monitored postoperatively for recovery from anesthesia and checked daily for 2 days postoperatively. Surgical skin clips were removed on postoperative day 5. […] Tumor growth was monitored daily by measuring the tumor size with caliper. […]
For immunohistochemistry (IHC), tissues were fixed in 10% formalin (ThermoScientific, 5701) and embedded in paraffin in accordance with standard procedures. […] All the quantifications have been done using the public online software ImmunoRatio (153.1.200.58:8080/iimunoratio/). […]

**Q.** `C[C@@H](Oc1cc(NS(=O)(=O)N2CCC2)nc(SCc2cccc(F)c2F)n1)[C@@H](O)CO` [AZD5069] was tested. Which “tumor infiltration of PMN-MDSCs” value ([1]; AZD5069 100 mg/kg i.p. daily Monday-Friday, flow cytometry (FIG. 6f)) did it give?
**A.** The value was “strongly reduced the tumor infiltration of PMN-MDSCs”.

**Q.** And the “progression to CRPC” value ([1]; judged by tumor volume and levels of AR target genes, untreated mice developed CRPCs four months after castration)?
**A.** The value was “did not progress to CRPCs”.

**Q.** What about the “tumor infiltration of PMN-MDSCs” value (TRAMP-C1 cells [2]; castrated C57BL/6 mice with s.c. TRAMP-C1 tumors, AZD5069 100 mg/kg i.p., flow cytometry (FIG. 7a)) of the same molecule?
**A.** Its value is “strongly reduced the tumor infiltration of PMN-MDSCs”.

**Q.** And the “emergence of CRPC” value (TRAMP-C1 cells [2]; castrated TRAMP-C1 allograft mice)?
**A.** The value was “delayed the emergence of CRPC”.

**Q.** And the tumor size (TRAMP-C1 cells [2]; castrated TRAMP-C1 allograft mice (FIG. 7c))?
**A.** Its tumor size is “decreased tumor size”.

**Q.** And the survival (TRAMP-C1 cells [2]; castrated TRAMP-C1 allograft mice, Kaplan-Meier (FIG. 7d))?
**A.** The survival was “longer survival”.

**Q.** And the “level of AR target genes in tumors” value (TRAMP-C1 cells [2]; castrated TRAMP-C1 allograft mice, qRT-PCR (FIG. 7b))?
**A.** Its value is “decreased”.

**Q.** And the “tumor infiltration of PMN-MDSCs” value (MyC-CaP cells; castrated FVB mice with s.c. MyC-CaP tumors, AZD5069 100 mg/kg i.p., flow cytometry (FIG. 7e))?
**A.** The value was “strongly reduced the tumor infiltration of PMN-MDSCs”.

**Q.** And the “emergence of CRPC” value (MyC-CaP cells; castrated MyC-CaP allograft mice)?
**A.** Its value is “delayed the emergence of CRPC”.

**Q.** What about the tumor size (MyC-CaP cells; castrated MyC-CaP allograft mice (FIG. 7g)) of the same molecule?
**A.** The tumor size was “decreased tumor size”.

**Q.** What about the survival (MyC-CaP cells; castrated MyC-CaP allograft mice, Kaplan-Meier (FIG. 7h)) of the same molecule?
**A.** The survival was “longer survival”.

**Q.** And the “level of AR target genes in tumors” value (MyC-CaP cells; castrated MyC-CaP allograft mice, qRT-PCR (FIG. 7f))?
**A.** Its value is “decreased”.

**Q.** What about the “AR activity (AR target genes, qRT-PCR)” value (TRAMP-C1 cells [3]; TRAMP-C1 cells in F.A.D., 24 h of treatment with CXCR2 antagonist (FIG. 6i)) of the same molecule?
**A.** The value was “did not directly affect”.

**Q.** What about the cell proliferation (TRAMP-C1 cells [3]; TRAMP-C1 cells in F.A.D., 72 h of treatment with CXCR2 antagonist (FIG. 6h)) of the same molecule?
**A.** The cell proliferation was “did not directly affect”.

**Q.** For `CNC(=O)c1ccc(N2C(=S)N(c3ccc(C#N)c(C(F)(F)F)c3)C(=O)C2(C)C)cc1F` [ENZA, Enzalutamide], which “treatment effect (glands, tumor volume, proliferation)” value [4] is on record?
**A.** The value was “ineffective”.

B1: recombinant IL23: recombinant IL23 (100 ng/ml; R&D System) (protein, UniProt Q9NPF7 20-189; P29460 23-328, looked up)
Interleukin-23 subunit alpha: RAVPGGSSPAWTQCQQLSQKLCTLAWSAHPLVGHMDLREEGDEETTNDVPHIQCGDGCDPQGLRDNSQFCLQRIHQGLIFYEKLLGSDIFTGEPSLLPDSPVGQLHASLLGLSQLLQPEGHHWETQQIPSLSPSQPWQRLLLRFKILRSLQAFVAVAARVFAHGAATLSP
Interleukin-12 subunit beta: IWELKKDVYVVELDWYPDAPGEMVVLTCDTPEEDGITWTLDQSSEVLGSGKTLTIQVKEFGDAGQYTCHKGGEVLSHSLLLLHKKEDGIWSTDILKDQKEPKNKTFLRCEAKNYSGRFTCWWLTTISTDLTFSVKSSRGSSDPQGVTCGAATLSAERVRGDNKEYEYSVECQEDSACPAAEESLPIEVMVDAVHKLKYENYTSSFFIRDIIKPDPPKNLQLKPLKNSRQVEVSWEYPDTWSTPHSYFSLTFCVQVQGKSKREKKDRVFTDKTSATVICRKNASISVRAQDRYYSSSWSEWASVPCS
**Q.** What does the source list for B1?
**A.** cell survival (AnnexinV/7AAD) (TRAMP-C1 cells [3]; TRAMP-C1 cells kept in F.A.D., recombinant IL23 100 ng/ml (FIG. 2f-g)): promoted; transcription of androgen receptor target genes (TRAMP-C1 cells [3]; TRAMP-C1 cells kept in F.A.D., recombinant IL23 100 ng/ml, 24 h, qRT-PCR (FIG. 2h)): increased transcription of androgen receptor target genes; cell proliferation (TRAMP-C1 cells [3]; TRAMP-C1 cells kept in F.A.D., recombinant IL23 100 ng/ml, 72 h (FIG. 2e)): promoted proliferation
